One may read the inhibition as the percentage by which the read-out fell short of the control. By IC50 is commonly meant the point on the concentration scale where inhibition reaches its midpoint. By Kd is commonly meant the free concentration of one partner at which half of the binding sites on the other are occupied at equilibrium, for simple one-to-one binding.

We go through one compound from article PMC8056384 (ACS Chemical Biology, 2021).

Test [1] has as its target T1, hGALK1 (Homo sapiens, UniProt P51570, E253A/K252A).
T1 construct: A hGALK1 construct, encoding full-length protein harboring the surface entropy[41] mutations K252A:E253A; His6 (N); made in house; host or cells: E. coli BL21(DE3)
In words: Kinase-Glo luminescent hGALK1 activity assay. Type of test: biochemical. Details: Vmaxapp, substrate galactose, with ligand (+) / Kmapp, substrate galactose, with ligand (+): unit not given here. As to the method: hGALK1 activity in vitro was determined using the Kinase-Glo luminescent kinase assay (Promega), according to the manufacturer’s protocol. […] Following a 1-h RT incubation, 10 μL of Kinase-Glo Plus detection reagent was added (final assay volume: 20 μL/well), and after a further 20 minutes RT incubation, luminescence was detected using a Pherastar FSX plate reader (BMG Labtech) containing a luminescence optics module. […] All reactions were performed in technical triplicates for two different preparations of hGALK1.
Data were plotted using GraphPad Prism software; curve fitting was performed with a nonlinear least-squares regression fit to the mixed, competitive, noncompetitive, and uncompetitive inhibition models from the GraphPad Prism enzyme kinetics–inhibition equations and the best fit selected by comparison of Akaike’s Information Criterion (AICc) probability scores and extra sum-of-squares F test P values calculated by the software.
On the technique in general: In Kinase-Glo more light means more ATP remaining.

In test [2] the target is T1, hGALK1. Briefly: Amplex Red fluorescence-based hGALK1 activity assay (coupled with galactose oxidase). Type of test: biochemical. Details: Vmaxapp, substrate ATP, with ligand (+) / Kmapp, substrate ATP, with ligand (+): unit not given here. The text has this:
Consequently, to confirm the mode of inhibition of the spiro-benzoxazole inhibitors with respect to ATP, we adopted the Amplex Red fluorescence-based assay[33],[34] by coupling the hGALK1 reaction with D. dendroides galactose oxidase (GAO; EC 1.1.3.9) to measure the level of galactose remaining after being depleted as a substrate for hGALK1. In this method, hydrogen peroxide generated by the oxidation of galactose by GAO is used by horseradish peroxidase to convert the nonfluorescent substrate Amplex Red into its highly fluorescent product resorufin; therefore, the resultant fluorescent signal is inversely proportional to hGALK1 enzyme activity. We optimized several parameters of this assay to allow measurement of hGALK1 activity for the first time (Figure S3; Supplementary Results).
The Amplex Red assay reagent contained horseradish peroxidase (EC 1.11.1.7, 0.2 U/mL), its substrate Amplex Red (10-acetyl-3,7-dihydroxyphenoxazine, 100 μM), and galactose oxidase (EC 1.1.3.9, 4 U/mL). The assay buffer used was the same as in the Kinase-Glo assay. […] Amplex Red reagent was added at a 1:1 volume to the hGALK1 reaction after 1-h incubation at RT. Fluorescence emission was measured at 585 nm, with excitation at 570 nm, after a further incubation period of 40 minutes, using a Pherastar FSX plate reader with a FI 540 590 optics module. Reactions were performed in technical triplicates for two biological replicates, and data were plotted and fitted as described for the Kinase-Glo assay except that the reaction rate, defined as total galactose consumed over the 1-h hGALK1 reaction, was determined using the following equation, where Fluorreaction = mean value of measured fluorescence of each reaction and Fluor50 = measured fluorescence with no galactose (i.e., fluorescence of 50 μM galactose): [drawing 2]

Test [3] addresses T1, hGALK1. In words: Surface plasmon resonance (SPR) binding assay. The following applies: hGALK1 immobilized on CM5 chip, analyte 0.195–200 μM, n = 1. The protocol:
Purified hGALK1 (30 μg/mL), diluted in acetate buffer at pH 5, was attached via covalent coupling to a density of 13000 RU on a CM5 chip. The assay buffer was 50 mM sodium phosphate, pH 7.5, 200 mM NaCl, 0.5 mM TCEP, 5% DMSO, and 0.05% TWEEN20. A serial dilution (11 concentrations) was prepared in the above buffer for each analyte (3, 11–13) by 1:1 dilution from 200 μM to 0.195 μM, and the subsequent solutions were passed over the chip at a flow rate of 30 μL/min. Data are from an n = 1 experiment.
(In SPR one partner is held on a chip, and binding of the other changes the refractive index at the surface.)

Test [4] deals with T2, hGALK2 (Homo sapiens, UniProt Q01415).
T2 construct: Constructs encoding full-length hGALK2 (Met1-Ala458) and hMVK (Met1-Leu396); His6-Strep-Strep tag followed by TEV protease cleavage site (N); made in house; host or cells: E. coli BL21(DE3)
T2 sequence (Q01415 1-458): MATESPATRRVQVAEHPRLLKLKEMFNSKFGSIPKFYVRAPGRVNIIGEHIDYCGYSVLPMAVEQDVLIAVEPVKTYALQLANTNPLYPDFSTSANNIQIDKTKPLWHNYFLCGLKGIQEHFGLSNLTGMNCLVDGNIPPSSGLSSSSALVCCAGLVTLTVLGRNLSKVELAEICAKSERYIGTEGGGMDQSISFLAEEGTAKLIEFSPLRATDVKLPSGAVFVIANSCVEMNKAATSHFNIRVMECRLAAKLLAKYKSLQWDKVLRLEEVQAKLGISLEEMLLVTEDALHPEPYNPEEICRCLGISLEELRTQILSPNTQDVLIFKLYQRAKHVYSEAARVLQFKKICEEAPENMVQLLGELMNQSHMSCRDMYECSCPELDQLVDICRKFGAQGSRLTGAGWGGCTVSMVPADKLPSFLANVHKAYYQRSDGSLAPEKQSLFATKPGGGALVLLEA
Briefly: Kinase-Glo hGALK2 activity assay. The following applies: 1 mM compound. Type of test: biochemical. The protocol: (§1) hGALK1 activity in vitro was determined using the Kinase-Glo luminescent kinase assay (Promega), according to the manufacturer’s protocol. […] Similarly, hGALK2 activity and inhibition was measured with reactions containing 50 nM hGALK2, 100 μM N-acetylgalactosamine, and 35 μM ATP in the above-described buffer and hMVK activity and inhibition was measured with reactions containing 250 nM hMVK, 100 μM mevalonate, and 35 μM ATP in the above-described buffer. Following a 1-h RT incubation, 10 μL of Kinase-Glo Plus detection reagent was added (final assay volume: 20 μL/well), and after a further 20 minutes RT incubation, luminescence was detected using a Pherastar FSX plate reader (BMG Labtech) containing a luminescence optics module. To determine the inhibition mode with respect to galactose, 10 nM hGALK1 and 35 μM ATP in an assay buffer was added to an array of six fragment (0–15 mM) or 12 compound (0–2 mM) concentrations against six galactose concentrations (0–250 μM), with a final reaction volume of 10 μL/well dispensed into 384-well assay plates (Greiner), and measured as described above. All reactions were performed in technical triplicates for two different preparations of hGALK1. Reaction rate, defined as total ATP consumed over the 1-h hGALK1 reaction, was determined using the following equation, where Lumreaction = mean value of measured luminescence of each reaction and Lum35 = measured luminescence with no galactose (i.e., luminescence of 35 μM ATP): [drawing 1]

In test [5] the target is T3, hMVK (Homo sapiens, UniProt Q03426).
T3 construct: Constructs encoding full-length hGALK2 (Met1-Ala458) and hMVK (Met1-Leu396); His6-Strep-Strep tag followed by TEV protease cleavage site (N); made in house; host or cells: E. coli BL21(DE3)
T3 sequence (Q03426 whole entry): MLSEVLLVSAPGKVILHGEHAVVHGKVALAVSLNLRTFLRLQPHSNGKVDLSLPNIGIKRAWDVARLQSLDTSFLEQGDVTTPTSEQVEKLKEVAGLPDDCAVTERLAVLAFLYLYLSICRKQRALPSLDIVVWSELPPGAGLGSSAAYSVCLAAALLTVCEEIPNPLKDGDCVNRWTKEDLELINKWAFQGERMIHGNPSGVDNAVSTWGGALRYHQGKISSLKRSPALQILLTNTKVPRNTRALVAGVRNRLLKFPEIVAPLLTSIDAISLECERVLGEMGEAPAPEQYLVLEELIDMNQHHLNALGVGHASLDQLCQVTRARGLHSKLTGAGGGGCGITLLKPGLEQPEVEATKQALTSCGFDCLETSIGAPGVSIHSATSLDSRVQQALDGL
Briefly: Kinase-Glo hMVK activity assay. As to conditions: 1 mM compound. The format is biochemical. The protocol: as §1

The mark [6] stands for this setting: 35 µM ATP, maximum tested concentration: 1 mM T1, 15 mM fragment 3, 2 mM 11–13.
[7] abbreviates: concentration achieving 50% inhibition, IC50 not determinable, lower potency.
Where [8] appears, read: 50 µM galactose, maximum tested concentration: 1 mM T1, 15 mM fragment 3, 2 mM 11–13.

Several values for one entry are separate records, joined by “and”; a condition that tells them apart may be missing. Equal values may be shown once.

T1 sequence (P51570 whole entry K252A/E253A): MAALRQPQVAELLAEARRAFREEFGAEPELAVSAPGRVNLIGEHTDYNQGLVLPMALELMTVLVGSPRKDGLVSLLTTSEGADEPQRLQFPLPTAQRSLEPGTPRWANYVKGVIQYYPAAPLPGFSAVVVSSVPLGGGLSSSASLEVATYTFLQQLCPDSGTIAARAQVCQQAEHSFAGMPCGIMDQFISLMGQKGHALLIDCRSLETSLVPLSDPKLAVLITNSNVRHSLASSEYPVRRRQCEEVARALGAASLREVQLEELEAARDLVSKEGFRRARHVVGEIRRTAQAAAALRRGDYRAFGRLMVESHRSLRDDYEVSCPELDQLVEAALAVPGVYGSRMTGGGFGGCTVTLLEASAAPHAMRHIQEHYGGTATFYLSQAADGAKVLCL

For the compound `COc1ccc(Cl)cc1C(=O)NC1CCN(c2ncccn2)CC1` [compound 13], in test [1] (35 μM ATP, 0–250 μM galactose, best-fit model in GraphPad Prism), the “mode of inhibition with respect to galactose” value was “mixed”. In test [1] (setting [6]), the “Kmapp, substrate galactose, with ligand (+)” value worked out at 143.6 ± 7.6. The “Vmaxapp, substrate galactose, with ligand (+)” value in test [1] (setting [6]) is given as 4.4 ± 0.4. Also, the inhibition at 2000 µM in test [1] (2 mM compound) and in test [2] (2 mM compound) was greater than 50% each time. For the same compound, the IC50 in test [1] (setting [7]) and in test [2] (setting [7]) was roughly 1000 µM throughout. In test [2] (50 μM galactose, 0–250 μM ATP, best-fit model in GraphPad Prism), the “mode of inhibition with respect to ATP” value is “noncompetitive”. In addition, in test [2] (setting [8]), the “Kmapp, substrate ATP, with ligand (+)” value is on record as 46.5 ± 4.5. Moreover, in test [2] (setting [8]), the “Vmaxapp, substrate ATP, with ligand (+)” value is recorded as 14.7 ± 3.0. The Kd in test [3] was ~200 µM and ~203 µM. The inhibition at 1000 µM in test [4] and in test [5] was less than 10% in each case.
